In brackets after ≈: the same amount, converted by molar mass. Where a SMILES comes first, the peptide text is derived from it.
Legend:
[1] = Therapeutic index, ratio of MHC for human RBC to geometric mean of peptide MIC for Escherichia coli UB1005; format: toxicity; conditions: human red blood cells (RBC), read-out: TI
[2] = Therapeutic index, ratio of MHC for human RBC to geometric mean of peptide MIC for Staphylococcus aureus 11011; format: toxicity; conditions: human red blood cells (RBC), read-out: TI
Escherichia coli [3] = test: Antibacterial activity against Escherichia coli UB1005 after 18 to 24 hrs by CLSI-based broth microdilution method; format: functional; conditions: time hrs 18-24
[4] = Therapeutic index, ratio of MHC for human RBC to geometric mean of peptide MIC for Escherichia coli ATCC 25922; format: toxicity; conditions: human red blood cells (RBC), read-out: TI
[5] = Therapeutic index, ratio of MHC for human RBC to geometric mean of peptide MIC for Salmonella typhimurium 7731; format: toxicity; conditions: human red blood cells (RBC), read-out: TI
Staphylococcus aureus [6] = test: Antibacterial activity against Staphylococcus aureus ATCC 29213 after 18 to 24 hrs by CLSI-based broth microdilution method; format: functional; conditions: time hrs 18-24
[7] = test system: Staphylococcus epidermidis; test: Antibacterial activity against Staphylococcus epidermidis ATCC 12228 after 18 to 24 hrs by CLSI-based broth microdilution method; format: functional; conditions: time hrs 18-24
Salmonella typhimurium [8] = test: Antibacterial activity against Salmonella typhimurium 14028 after 18 to 24 hrs by CLSI-based broth microdilution method; format: functional, Salmonella enterica subsp. enterica serovar Typhimurium; conditions: Salmonella enterica, time hrs 18-24
[9] = Therapeutic index, ratio of MHC for human RBC to geometric mean of peptide MIC for Salmonella typhimurium 14028; format: toxicity; conditions: human red blood cells (RBC), read-out: TI
Staphylococcus aureus [10] = test: Antibacterial activity against Staphylococcus aureus 11011 after 18 to 24 hrs by CLSI-based broth microdilution method; format: functional; conditions: time hrs 18-24
[11] = Therapeutic index, ratio of MHC for human RBC to geometric mean of peptide MIC for Staphylococcus aureus ATCC 29213; format: toxicity; conditions: human red blood cells (RBC), read-out: TI
Salmonella enterica = test: Antibacterial activity against Salmonella choleraesuis 503 after 18 to 24 hrs by CLSI-based broth microdilution method; format: functional; conditions: time hrs 18-24
[12] = Cytotoxicity against mouse RAW264.7 cells assessed as cell viability at 128 uM by MTT assay relative to control; format: cell-based; conditions: read-out: Activity
[13] = Therapeutic index, ratio of MHC for human RBC to geometric mean of peptide MIC for Staphylococcus epidermidis ATCC 12228; format: toxicity; conditions: human red blood cells (RBC), read-out: TI
Salmonella typhimurium [14] = test: Antibacterial activity against Salmonella typhimurium 7731 after 18 to 24 hrs by CLSI-based broth microdilution method; format: functional, Salmonella enterica subsp. enterica serovar Typhimurium; conditions: Salmonella enterica, time hrs 18-24
[15] = Therapeutic index, ratio of MHC for human RBC to geometric mean of peptide MIC for Salmonella pullorum 7913; format: toxicity; conditions: human red blood cells (RBC), read-out: TI
Erythrocyte = test: Hemolytic activity in human RBC assessed as hemolysis; format: ADME, cell-based
[16] = Cytotoxicity against HEK-293T cells assessed as cell viability at 128 uM by MTT assay relative to control; format: cell-based; conditions: human, read-out: Activity
[17] = Antibacterial activity against Salmonella pullorum 7913 after 18 to 24 hrs by CLSI-based broth microdilution method; format: functional, Salmonella enterica subsp. enterica serovar Pullorum; conditions: Salmonella enterica, time hrs 18-24
Streptococcus agalactiae = test: Antibacterial activity against Streptococcus agalactiae H92 after 18 to 24 hrs by CLSI-based broth microdilution method; format: functional; conditions: time hrs 18-24
Staphylococcus aureus [18] = test: Antibacterial activity against methicillin-resistant Staphylococcus aureus 43300 after 18 to 24 hrs by CLSI-based broth microdilution method; format: functional; conditions: time hrs 18-24
[19] = Therapeutic index, ratio of MHC for human RBC to geometric mean of peptide MIC for methicillin-resistant Staphylococcus aureus 43300; format: toxicity; conditions: human red blood cells (RBC), read-out: TI
[20] = Hemolytic activity in human RBC assessed as hemolysis at 1 to 128 uM relative to control; format: ADME, cell-based, Erythrocyte; conditions: human red blood cells (RBC), dose 1-128 µM, read-out: Activity
[21] = Therapeutic index, ratio of MHC for human RBC to geometric mean of peptide MIC for Streptococcus agalactiae H92; format: toxicity; conditions: human red blood cells (RBC), read-out: TI
Escherichia coli [22] = test: Antibacterial activity against Escherichia coli ATCC 25922 after 18 to 24 hrs by CLSI-based broth microdilution method; format: functional; conditions: time hrs 18-24
[23] = Therapeutic index, ratio of MHC for human RBC to geometric mean of peptide MIC for Enterococcus faecalis ATCC 29212; format: toxicity; conditions: human red blood cells (RBC), read-out: TI
[24] = Therapeutic index, ratio of MHC for human RBC to geometric mean of peptide MIC for Salmonella choleraesuis 503; format: toxicity; conditions: human red blood cells (RBC), read-out: TI
Enterococcus faecalis = test: Antibacterial activity against Enterococcus faecalis ATCC 29212 after 18 to 24 hrs by CLSI-based broth microdilution method; format: functional; conditions: time hrs 18-24

Structure (SMILES) | selectivity ratio [1] | selectivity ratio [2] | MIC (Escherichia coli [3]) [µM] | selectivity ratio [4] | selectivity ratio [5] | MIC (Staphylococcus aureus [6]) [µM] | MIC [7] [µM] | MIC (Salmonella typhimurium [8]) [µM] | selectivity ratio [9] | MIC (Staphylococcus aureus [10]) [µM] | selectivity ratio [11] | MIC (Salmonella enterica) [µM] | viability at 128 µM [12] [%] | selectivity ratio [13] | MIC (Salmonella typhimurium [14]) [µM] | selectivity ratio [15] | MHC (Erythrocyte) [µM] | viability at 128 µM [16] [%] | MIC [17] [µM] | MIC (Streptococcus agalactiae) [µM] | other results
CC(C)[C@H](N)C(=O)N[C@@H](CS)C(=O)N[C@@H](CCCNC(=N)N)C(=O)N[C@@H](CCCCN)C(=O)N1CCC[C@H]1C(=O)N[C@H](C(=O)N[C@H](C(=O)N[C@@H](CS)C(=O)N[C@@H](CCCNC(=N)N)C(=O)N[C@@H](CCCCN)C(=O)N1CCC[C@H]1C(=O)N[C@H](C(N)=O)C(C)C)C(C)C)C(C)C (H-VCRKPVVCRKPV-NH2) | 2 | 2 | > 64 | 2 | 2 | > 64 | > 64 | > 64 | 2 | > 64 | 2 | > 64 | > 90 | 2 | > 64 | 2 | > 128 | > 90 | > 64 | > 64 | MIC (Staphylococcus aureus [18]): > 64 µM; selectivity ratio [19]: 2; hemolysis at up to 128 µM [20]: < 5%; selectivity ratio [21]: 2; MIC (Escherichia coli [22]): > 64 µM; selectivity ratio [23]: 2; selectivity ratio [24]: 2; MIC (Enterococcus faecalis): > 64 µM
CC[C@H](C)[C@H](N)C(=O)N[C@H](C(=O)N[C@H](C(=O)N[C@@H](CS)C(=O)N[C@@H](CCCNC(=N)N)C(=O)N[C@@H](CCCCN)C(=O)N1CCC[C@H]1C(=O)N[C@H](C(=O)N[C@H](C(=O)N[C@@H](CS)C(=O)N[C@@H](CCCNC(=N)N)C(=O)N[C@@H](CCCCN)C(=O)N1CCC[C@H]1C(=O)N[C@H](C(=O)N[C@H](C(=O)N[C@@H](CS)C(=O)N[C@@H](CCCNC(=N)N)C(=O)N[C@@H](CCCCN)C(=O)N1CCC[C@H]1C(=O)N[C@H](C(=O)N[C@H](C(=O)N[C@H](C(N)=O)[C@@H](C)CC)[C@@H](C)CC)[C@@H](C)CC)[C@@H](C)CC)[C@@H](C)CC)[C@@H](C)CC)[C@@H](C)CC)[C@@H](C)CC)[C@@H](C)CC (H-IIICRKPIICRKPIICRKPIII-NH2) | 16 | 2.52 | 4 (≈ 10.4 µg/mL) | 16 | 16 | > 64 | > 64 | 8 (≈ 20.8 µg/mL) | 16 | > 64 | 2.52 | 16 (≈ 41.6 µg/mL) | > 90 | 2.52 | 8 (≈ 20.8 µg/mL) | 16 | > 128 | > 90 | 16 (≈ 41.6 µg/mL) | 16 (≈ 41.6 µg/mL) | MIC (Staphylococcus aureus [18]): > 64 µM; selectivity ratio [19]: 2.52; hemolysis at up to 128 µM [20]: < 5%; selectivity ratio [21]: 2.52; MIC (Escherichia coli [22]): 4 µM (≈ 10.4 µg/mL); selectivity ratio [23]: 2.52; selectivity ratio [24]: 16; MIC (Enterococcus faecalis): > 64 µM
CC[C@H](C)[C@H](N)C(=O)N[C@@H](CS)C(=O)N[C@@H](CCCNC(=N)N)C(=O)N[C@@H](CCCCN)C(=O)N1CCC[C@H]1C(=O)N[C@H](C(=O)N[C@H](C(=O)N[C@@H](CS)C(=O)N[C@@H](CCCNC(=N)N)C(=O)N[C@@H](CCCCN)C(=O)N1CCC[C@H]1C(=O)N[C@H](C(=O)N[C@H](C(=O)N[C@@H](CS)C(=O)N[C@@H](CCCNC(=N)N)C(=O)N[C@@H](CCCCN)C(=O)N1CCC[C@H]1C(=O)N[C@H](C(=O)N[C@H](C(=O)N[C@@H](CS)C(=O)N[C@@H](CCCNC(=N)N)C(=O)N[C@@H](CCCCN)C(=O)N1CCC[C@H]1C(=O)N[C@H](C(=O)N[C@H](C(=O)N[C@@H](CS)C(=O)N[C@@H](CCCNC(=N)N)C(=O)N[C@@H](CCCCN)C(=O)N1CCC[C@H]1C(=O)N[C@H](C(N)=O)[C@@H](C)CC)[C@@H](C)CC)[C@@H](C)CC)[C@@H](C)CC)[C@@H](C)CC)[C@@H](C)CC)[C@@H](C)CC)[C@@H](C)CC)[C@@H](C)CC (H-ICRKPIICRKPIICRKPIICRKPIICRKPI-NH2) | 28.5 | 2 | 2 (≈ 7.14 µg/mL) | 28.5 | 28.5 | > 64 | > 64 | 4 (≈ 14.3 µg/mL) | 28.5 | > 64 | 2 | 8 (≈ 28.6 µg/mL) | > 90 | 2 | 4 (≈ 14.3 µg/mL) | 28.5 | > 128 | > 90 | 8 (≈ 28.6 µg/mL) | > 64 | MIC (Staphylococcus aureus [18]): > 64 µM; selectivity ratio [19]: 2; hemolysis at up to 128 µM [20]: < 5%; selectivity ratio [21]: 2; MIC (Escherichia coli [22]): 4 µM (≈ 14.3 µg/mL); selectivity ratio [23]: 2; selectivity ratio [24]: 28.5; MIC (Enterococcus faecalis): > 64 µM
CC(C)[C@H](N)C(=O)N[C@@H](CS)C(=O)N[C@@H](CCCNC(=N)N)C(=O)N[C@@H](CCCCN)C(=O)N1CCC[C@H]1C(=O)N[C@H](C(=O)N[C@H](C(=O)N[C@@H](CS)C(=O)N[C@@H](CCCNC(=N)N)C(=O)N[C@@H](CCCCN)C(=O)N1CCC[C@H]1C(=O)N[C@H](C(=O)N[C@H](C(=O)N[C@@H](CS)C(=O)N[C@@H](CCCNC(=N)N)C(=O)N[C@@H](CCCCN)C(=O)N1CCC[C@H]1C(=O)N[C@H](C(=O)N[C@H](C(=O)N[C@@H](CS)C(=O)N[C@@H](CCCNC(=N)N)C(=O)N[C@@H](CCCCN)C(=O)N1CCC[C@H]1C(=O)N[C@H](C(N)=O)C(C)C)C(C)C)C(C)C)C(C)C)C(C)C)C(C)C)C(C)C (H-VCRKPVVCRKPVVCRKPVVCRKPV-NH2) | 8 | 2 | 8 (≈ 22 µg/mL) | 8 | 8 | > 64 | > 64 | 8 (≈ 22 µg/mL) | 8 | > 64 | 2 | > 64 | > 90 | 2 | 8 (≈ 22 µg/mL) | 8 | > 128 | > 90 | 64 (≈ 176 µg/mL) | > 64 | MIC (Staphylococcus aureus [18]): > 64 µM; selectivity ratio [19]: 2; hemolysis at up to 128 µM [20]: < 5%; selectivity ratio [21]: 2; MIC (Escherichia coli [22]): 8 µM (≈ 22 µg/mL); selectivity ratio [23]: 2; selectivity ratio [24]: 8; MIC (Enterococcus faecalis): > 64 µM
CC(C)[C@H](N)C(=O)N[C@@H](CS)C(=O)N[C@@H](CCCNC(=N)N)C(=O)N[C@@H](CCCCN)C(=O)N1CCC[C@H]1C(=O)N[C@H](C(=O)N[C@H](C(=O)N[C@@H](CS)C(=O)N[C@@H](CCCNC(=N)N)C(=O)N[C@@H](CCCCN)C(=O)N1CCC[C@H]1C(=O)N[C@H](C(=O)N[C@H](C(=O)N[C@@H](CS)C(=O)N[C@@H](CCCNC(=N)N)C(=O)N[C@@H](CCCCN)C(=O)N1CCC[C@H]1C(=O)N[C@H](C(=O)N[C@H](C(=O)N[C@@H](CS)C(=O)N[C@@H](CCCNC(=N)N)C(=O)N[C@@H](CCCCN)C(=O)N1CCC[C@H]1C(=O)N[C@H](C(=O)N[C@H](C(=O)N[C@@H](CS)C(=O)N[C@@H](CCCNC(=N)N)C(=O)N[C@@H](CCCCN)C(=O)N1CCC[C@H]1C(=O)N[C@H](C(N)=O)C(C)C)C(C)C)C(C)C)C(C)C)C(C)C)C(C)C)C(C)C)C(C)C)C(C)C (H-VCRKPVVCRKPVVCRKPVVCRKPVVCRKPV-NH2) | 16 | 2 | 4 (≈ 13.7 µg/mL) | 16 | 16 | > 64 | > 64 | 4 (≈ 13.7 µg/mL) | 16 | > 64 | 2 | > 64 | > 90 | 2 | 4 (≈ 13.7 µg/mL) | 16 | > 128 | > 90 | 16 (≈ 54.9 µg/mL) | > 64 | MIC (Staphylococcus aureus [18]): > 64 µM; selectivity ratio [19]: 2; hemolysis at up to 128 µM [20]: < 5%; selectivity ratio [21]: 2; MIC (Escherichia coli [22]): 4 µM (≈ 13.7 µg/mL); selectivity ratio [23]: 2; selectivity ratio [24]: 16; MIC (Enterococcus faecalis): > 64 µM

— ChEMBL document CHEMBL4665709, “Rational Avoidance of Protease Cleavage Sites and Symmetrical End-Tagging Significantly Enhances the Stability and Therapeutic Potential of Antimicrobial Peptides” (J Med Chem, 2020)
